US20190355440A1, “FLOW CYTOMETRY DATA […] ANTIMICROBIAL AGENT S[…]” (priority 2016, published 2019)

Test system: Enterobacteriaceae strains
Experiment: FCM-AST: flow cytometry fluorescence distribution (DiBAC4(3) membrane depolarization marker) of antibiotic-treated strains
Assay type: cell-based
Protocol: In a next step 22, liquid samples with different concentrations {C1, . . . , Cm} of the antibiotic are prepared for each of the selected strains Si, where C1=0 (no antibiotic) and m>2 is the number of non-null concentrations of antibiotic. Said concentrations are stored in the computer unit 14. […] After 2 h growth at 35° C. with shaking at 180 rpm, the resulting exponential phase bacterial culture is normalized at 0.5 McF and used to inoculate wells of a microtiterplate supplemented with antibiotics at the different concentrations {C1, . . . , Cm}. After 1 h of incubation at 35° C., a membrane depolarization fluorescent marker, for example (Bis-(1,3-Dibutylbarbituric Acid)Trimethine Oxonol), also known as “DiBAC4(3)”, is added to the wells at a final concentration of 0.5 μg/ml. An additional 15 min incubation with the marker is at 35° C. is then carried out. The concentrations {C1, . . . , Cm} are chosen such that the range [BPS, BPR] is included or equal to the range [C2, Cm] of non-null concentrations.
In the step 24, a FCM acquisition is performed for each sample by means of the flow-cytometer 12 and the corresponding FSC, SSC and fluorescence distributions stored in the computer unit 14. For each strain Si, and for each concentration Cj, a FSC distribution “FSCi,j”, a SSC distribution “SSCi,j” and a fluorescence distribution “FIi,j” are thus stored in the computer unit 14, e.g. in the form of digital vectors.
The experiment was performed as described in the following lines: • A panel of 107 Enterobacteriaceae strains (FIG. 6: Distribution of the panel of strains according to their MICs for Gentamicin) were treated with 0, 2, 4 and 8 mg/L of Gentamicin following the protocol described in FIG. 3 and analyzed by FCM.
In this experiment, we have made an evaluation of wide range of prediction models for Ceftazidime: • 128 Enterobacteriaceae strains (FIG. 9: Distribution of the panel of strains according to their MICs for Ceftazidime) were treated or not with four different concentrations of Ceftazidime (1, 2, 4 and 8 mg/L) using the FCM protocol described in FIG. 3; • FCM data were used to generate feature vectors as described above; • For each strategy (BPS, GS and GMS), 7 type of prediction models were built based on the feature vectors generated (FIG. 10: Number of predictions models generated. “FL1” means fluorescence); • The performance of all models were evaluated following cross validation as described above.

Molecule | fluorescence distribution of treated strains (inferred from poor performance of quantile models) (128 Enterobacteriaceae strains, 1, 2, 4 and 8 mg/L Ceftazidime) | fluorescence distribution profile vs untreated sample (intermediate phenotype strains, 2 mg/L Gentamicin) | fluorescence distribution profile vs untreated sample (intermediate phenotype strains, 4 and 8 mg/L Gentamicin) | resistant strains that did not show any shift in fluorescence (profile A) (resistant strains, all concentrations tested (2, 4, 8 mg/L)) | fluorescence distribution profile vs untreated sample (susceptible phenotype strains, panel of 107 strains, 2 mg/L Gentamicin) | fluorescence distribution profile vs untreated sample (susceptible phenotype strains, panel of 107 strains, 4 and 8 mg/L Gentamicin)
CC(C)(O/N=C(\C(=O)N[C@@H]1C(=O)N2C(C(=O)[O-])=C(C[n+]3ccccc3)CS[C@H]12)c1csc(N)n1)C(=O)O [Ceftazidime] | the majority of strains treated with Ceftazidime exhibit homogeneous distributions of fluorescence |  |  |  |  | 
Gentamicin |  | more strains showed no shift of fluorescence (profile A) | equal number of strains exhibited either no shift (profile A) or heterogeneous fluorescence distribution (profile B) | 36 out of 37 | equal number of strains exhibited either no shift (profile A) or heterogeneous fluorescence distributions (profile B) | the majority of strains exhibited an heterogeneous fluorescence distribution (profile B)
